Among the data in patent US4761410A, “Cephem Compounds” (Fujisawa Pharmaceutical Co., Ltd., priority 1985, dated 1988) are MIC values, retold here.

Assay [1] has as its system Escherichia coli 29. As to the kind of experiment: In vitro antibacterial activity (MIC) by two-fold agar-plate dilution method, Escherichia coli 29. It counts as cell-based. As to conditions: heart infusion agar, 37° C., 20 hours, read-out: MIC (minimal inhibitory concentration). How it is done:
(§1) In vitro antibacterial activity was determined by the two-fold agar-plate dilution method as described below.
(§2) One loopful of an overnight culture of each test strain in Trypticase-soy broth (10^8 viable cells per ml) was streaked on heart infusion agar HI-agar) containing graded concentrations of representative test compound, and the minimal inhibitory concentration (MIC) was expressed in terms of μg/ml after incubation at 37° C. for 20 hours.

For assay [2], the system named is Proteus vulgaris IAM 1025. As to the kind of experiment: In vitro antibacterial activity (MIC) by two-fold agar-plate dilution method, Proteus vulgaris IAM 1025. It counts as cell-based. As to conditions: IAM1025, heart infusion agar, 37° C., 20 hours, read-out: MIC (minimal inhibitory concentration). How it is done: as §1, §2

In brackets after ≈: the same amount, converted by molar mass.

Consider `Cc1ccc[n+](CC2=C(C(=O)[O-])N3C(=O)C(NC(=O)/C(=N\OC(F)F)c4csc(N)n4)C3SC2)c1` (stereo not drawn) [Test Compound (1), 7-[2-(2-Aminothiazol-4-yl)-2-difluoromethoxyiminoacetamido]-3-(3-methyl-1-pyridiniomethyl)-3-cephem-4-carboxylate], for which the MIC in assay [1] and in assay [2] was no more than 0.025 µg/mL each time.
As for `Cc1nsc(SCC2=C(C(=O)O)N3C(=O)C(NC(=O)/C(=N\OC(F)F)c4csc(N)n4)C3SC2)n1` (stereo not drawn) [Test Compound (2), 7-[2-(2-Aminothiazol-4-yl)-2-difluoromethoxyiminoacetamido]-3-(3-methyl-1,2,4-thiadiazol-5-yl)thiomethyl-3-cephem-4-carboxylic acid], the MIC stood at 0.2 µg/mL (≈ 0.355 µM) in assay [1] and 0.05 µg/mL (≈ 0.0887 µM) in assay [2].
Taken in the same sequence, the figures for `Nc1nc(/C(=N/OC(F)F)C(=O)NC2C(=O)N3C(C(=O)O)=C(CSc4ncns4)CSC23)cs1` (stereo not drawn) [Test Compound (3), 7-[2-(2-Aminothiazol-4-yl)-2-difluoromethoxyiminoacetamido]-3-(1,2,4-thiadiazol-5-yl)thiomethyl-3-cephem-4-carboxylic acid] were 0.1 µg/mL (≈ 0.182 µM) and no more than 0.025 µg/mL.
